Assay results published in PubChem BioAssay AID2060610 (Molecular Pharmacology Branch, DTP, NCI, 2025).

Tested on: 616215-338-R-J1-PDC complex spheroids, viability % test/control
Assay: Anticancer human tumor 616215-338-R-J1-PDC patient-derived colon adenocarcinoma cell line growth inhibition [CLK]
Conditions: for IC50: curve of first compound; for viability, T/C: stronger effect = lower value
Method in brief: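 Multi-cell-type spheroids combined patient-derived tumor cells with HUVEC endothelial cells and human mesenchymal stem cells. Paired agents were dosed in half-log steps down from about clinical Cmax, or from 10 microM where Cmax was unknown.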

[1] = second compound 0.0316 µM, first compound 0.0316 µM
[2] = second compound 0.0316 µM, first compound 0.1 µM
[3] = second compound 0.0316 µM, first compound 0.316 µM
[4] = second compound 0.0316 µM, first compound 1 µM
[5] = second compound 0.0316 µM, first compound 3.16 µM
[6] = second compound 0.0316 µM, first compound 10 µM
[7] = second compound 0.1 µM, first compound 0.0316 µM
[8] = second compound 0.1 µM, first compound 0.1 µM
[9] = second compound 0.1 µM, first compound 0.316 µM
[10] = second compound 0.1 µM, first compound 1 µM
[11] = second compound 0.1 µM, first compound 3.16 µM
[12] = second compound 0.1 µM, first compound 10 µM
[13] = second compound 0.316 µM, first compound 0.0316 µM
[14] = second compound 0.316 µM, first compound 0.1 µM
[15] = second compound 0.316 µM, first compound 0.316 µM
[16] = second compound 0.316 µM, first compound 1 µM
[17] = second compound 0.316 µM, first compound 3.16 µM
[18] = second compound 0.316 µM, first compound 10 µM
[19] = second compound 1 µM, first compound 0.0316 µM
[20] = second compound 1 µM, first compound 0.1 µM
[21] = second compound 1 µM, first compound 0.316 µM
[22] = second compound 1 µM, first compound 1 µM
[23] = second compound 1 µM, first compound 3.16 µM
[24] = second compound 1 µM, first compound 10 µM
[25] = second compound 3.16 µM, first compound 0.0316 µM
[26] = second compound 3.16 µM, first compound 0.1 µM
[27] = second compound 3.16 µM, first compound 0.316 µM
[28] = second compound 3.16 µM, first compound 1 µM
[29] = second compound 3.16 µM, first compound 3.16 µM
[30] = second compound 3.16 µM, first compound 10 µM
[31] = second compound 10 µM, first compound 0.0316 µM
[32] = second compound 10 µM, first compound 0.1 µM
[33] = second compound 10 µM, first compound 0.316 µM
[34] = second compound 10 µM, first compound 1 µM
[35] = second compound 10 µM, first compound 3.16 µM
[36] = second compound 10 µM, first compound 10 µM
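Also: spheroids exposed to agents for 7 days.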
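For viability, T/C in this document: 100% = DMSO vehicle wells.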

COc1cccc2c1C(=O)c1c(O)c3c(c(O)c1C2=O)CC(O)(C(=O)CO)CC3OC1CC(N)C(O)C(C)O1 (stereo unspecified) + CNC(=O)c1ccc(Nc2nc(OC3CCCC3)c3c(-c4ccc5nc(C)oc5c4)c[nH]c3n2)c(OC)c1
IC50 (second compound 0.0316 µM): 328 nM
IC50 (second compound 0.1 µM): 340 nM
IC50 (second compound 0.316 µM): < 31.6 nM
IC50 (second compound 1 µM): 494 nM
IC50 (second compound 3.16 µM): 548 nM
IC50 (second compound 10 µM): 533 nM
viability, T/C [1]: 111%
viability, T/C [2]: 72.6%
viability, T/C [3]: 54.1%
viability, T/C [4]: 34.5%
viability, T/C [5]: 1.22%
viability, T/C [6]: 0.82%
viability, T/C [7]: 53.8%
viability, T/C [8]: 57.7%
viability, T/C [9]: 42.7%
viability, T/C [10]: 35.9%
viability, T/C [11]: 0.57%
viability, T/C [12]: 0.99%
viability, T/C [13]: 55.7%
viability, T/C [14]: 47.1%
viability, T/C [15]: 46.8%
viability, T/C [16]: 42.1%
viability, T/C [17]: 0.32%
viability, T/C [18]: 0.17%
viability, T/C [19]: 49.7%
viability, T/C [20]: 61.3%
viability, T/C [21]: 75.6%
viability, T/C [22]: 30.7%
viability, T/C [23]: 0.2%
viability, T/C [24]: 0.17%
viability, T/C [25]: 61.8%
viability, T/C [26]: 66.6%
viability, T/C [27]: 81.3%
viability, T/C [28]: 28.3%
viability, T/C [29]: 0.16%
viability, T/C [30]: 2.18%
viability, T/C [31]: 58.2%
viability, T/C [32]: 56%
viability, T/C [33]: 79.7%
viability, T/C [34]: 32.4%
viability, T/C [35]: 0.24%
viability, T/C [36]: 1.24%

O=C(c1cc(Cc2n[nH]c(=O)c3ccccc23)ccc1F)N1CCN(C(=O)C2CC2)CC1 + CN1CCN(c2cc(C(=O)Nc3cc4cc(-c5cnn(C)c5)ccc4cn3)ccn2)CC1
IC50 (second compound 0.0316 µM): > 10000 nM
IC50 (second compound 0.1 µM): > 10000 nM
IC50 (second compound 0.316 µM): < 31.6 nM
IC50 (second compound 1 µM): < 31.6 nM
IC50 (second compound 3.16 µM): < 31.6 nM
IC50 (second compound 10 µM): < 31.6 nM
viability, T/C [1]: 99.4%
viability, T/C [2]: 113%
viability, T/C [3]: 100%
viability, T/C [4]: 96.6%
viability, T/C [5]: 103%
viability, T/C [6]: 67.3%
viability, T/C [7]: 114%
viability, T/C [8]: 110%
viability, T/C [9]: 98.9%
viability, T/C [10]: 107%
viability, T/C [11]: 82.9%
viability, T/C [12]: 55.4%
viability, T/C [13]: 34.9%
viability, T/C [14]: 44.1%
viability, T/C [15]: 31.3%
viability, T/C [16]: 40.5%
viability, T/C [17]: 30.6%
viability, T/C [18]: 29.3%
viability, T/C [19]: 0.12%
viability, T/C [20]: 0.17%
viability, T/C [21]: 0.13%
viability, T/C [22]: 0.1%
viability, T/C [23]: 1.83%
viability, T/C [24]: 0.09%
viability, T/C [25]: 0.09%
viability, T/C [26]: 0.15%
viability, T/C [27]: 0.12%
viability, T/C [28]: 0.1%
viability, T/C [29]: 0.12%
viability, T/C [30]: 0.19%
viability, T/C [31]: 0.11%
viability, T/C [32]: 0.14%
viability, T/C [33]: 0.18%
viability, T/C [34]: 0.13%
viability, T/C [35]: 0.23%
viability, T/C [36]: 1.83%

COC1C=CCC(C)C(C)S(=O)(=O)NC(=O)c2ccc3c(c2)N(CC2CCC21)CC1(CCCc2cc(Cl)ccc21)CO3 (stereo unspecified) + CNC(=O)c1ccc(Nc2nc(OC3CCCC3)c3c(-c4ccc5nc(C)oc5c4)c[nH]c3n2)c(OC)c1
IC50 (second compound 0.0316 µM): > 10000 nM
IC50 (second compound 0.1 µM): 4640 nM
IC50 (second compound 0.316 µM): < 31.6 nM
IC50 (second compound 1 µM): < 31.6 nM
IC50 (second compound 3.16 µM): < 31.6 nM
IC50 (second compound 10 µM): < 31.6 nM
viability, T/C [1]: 95.9%
viability, T/C [2]: 95.1%
viability, T/C [3]: 94%
viability, T/C [4]: 86.2%
viability, T/C [5]: 104%
viability, T/C [6]: 52.3%
viability, T/C [7]: 56.5%
viability, T/C [8]: 57%
viability, T/C [9]: 57.6%
viability, T/C [10]: 60.9%
viability, T/C [11]: 59%
viability, T/C [12]: 34%
viability, T/C [13]: 37.2%
viability, T/C [14]: 43.9%
viability, T/C [15]: 33%
viability, T/C [16]: 25.7%
viability, T/C [17]: 19.6%
viability, T/C [18]: 20.4%
viability, T/C [19]: 35.1%
viability, T/C [20]: 39.7%
viability, T/C [21]: 34.3%
viability, T/C [22]: 26.4%
viability, T/C [23]: 21.5%
viability, T/C [24]: 17.1%
viability, T/C [25]: 41.6%
viability, T/C [26]: 41%
viability, T/C [27]: 34.5%
viability, T/C [28]: 27.2%
viability, T/C [29]: 22.8%
viability, T/C [30]: 20.3%
viability, T/C [31]: 40.7%
viability, T/C [32]: 33.7%
viability, T/C [33]: 29.8%
viability, T/C [34]: 26.5%
viability, T/C [35]: 19.6%
viability, T/C [36]: 17.3%
